Results: patent US20250064761A1, “SUBSTITUTED BENZAMIDES AND THEIR USE IN THERAPY” (PHARMACYL AB, priority 2018, published 2025)
Counter-ions that a name gives are not always drawn.

Legend:
[1] = system: LPS-induced TNF-production in RAW264.7 murine macrophage cells; test: Suppression of LPS-induced TNF-α production in macrophages (ELISA); assay type: cell-based; settings: Mus musculus, RAW264.7, read-out: % Inhibition of TNF-production
Protocol: The RAW264.7 macrophage line was maintained in DMEM supplemented with 5% FBS at 37° C. in a 5% CO2-humidified air environment. The RAW264.7 cells were seeded in 96-well plates at a density of 1×10^5/ml and a volume of 200 μl/well. The cells were incubated for 24 h in medium supplemented with 10% FBS and were then pre-incubated with or without the indicated concentrations of test substances for 2 h prior to the addition of LPS (1 μg/ml). The supernatants were subsequently harvested at various time points and production of the proinflammatory cytokine TNF-α in the culture medium was determined using a commercially available enzyme-linked immunosorbent assay (ELISA) kit according to the manufacturer's protocol.
Effects of some AABZs of the invention at 1 mM on LPS-induced TNF-production in RAW264.7 murine macrophage cells are shown in Table 2.

[2] = system: DSS induced colitis in Balb/c mice; test: Dextran sulfate sodium (DSS) induced inflammatory bowel disease in mice; assay type: in vivo; parameters: key to Blood in the Stool score LS means ± SE: 0 = normal, 2 = Hemoccult+, 4 = gross bleeding; key to Disease Activity Index LS means ± SE: sum of stool, blood and weight-loss scores (each 0-4), max 12
Protocol: The experiment was performed using 6- to 8-week old female Balb/c mice after a one-week acclimatization period. The mice weighed 18-25 g, were purchased from Taconic (Denmark) and were maintained in a temperature and light-controlled facility with free access to standard rodent chow and water. Mice were randomized to the respective groups five days before start of treatment and were kept 5 to 6 animals […] per cage. […] The DSS intake was assessed daily. SASP (from Sigma-Aldrich, Sweden) was first dissolved in 0.2 M sodium hydroxide (NaOH) at a concentration higher than the required final concentration. Phosphate buffered saline (PBS) was added to the desired concentration and the pH was adjusted to 7.5-8.0 with NaOH or hydrochloric acid. SASP remained completely dissolved at this pH. Cpd A was dissolved in PBS to the desired concentration. All animal groups had free access to 5% DSS water solution for the entire test period. Treatments were administered from day 0 to day 5, either orally by gavage (SASP) or intraperitoneally (Cpd A), and in an administration volume of 5 ml/kg, twice daily with approximately an 8-hour interval. The control group (DSS only) received water (0.2 ml) orally twice daily.
The parameters recorded in the experiment were stool consistency (0, normal; 2, loose stools; 4, watery diarrhoea), occurrence of blood in the stool (0, normal; 2, Hemoccult+; 4, gross bleeding), and body weight loss (0, none; 1, 1-5%; 2, 5-10%; 3, 10-20%; 4, >20%). Disease activity index (DAI) was calculated by summarizing the scores of these three parameters. Also the colon length and the colonic content of myeloperoxidase (MPO) were recorded. Data was statistically evaluated with analysis of variance (ANOVA). Least-squares means (LS means), and standard error (SE) of LS means were calculated.

dopamine D2 receptor = dopamine D2 receptor (Rattus norvegicus, UniProt P61169); assay type: binding; settings: in vitro; 125I-spiperone
[3] = system: collagen-induced arthritis in DBA/1 mice; test: Collagen-induced arthritis; assay type: in vivo; settings: 200 mg/kg/day in drinking water from day 14 to day 49
Protocol: The experiment was performed using 9-week old male DBA/1 mice after a two-week acclimatization period. The mice were purchased from B&M (Denmark), and were maintained in a temperature and light-controlled facility with free access to standard rodent chow and water. Following the acclimatization period, the mice (10 per treatment group) were anesthesized with Enflurane and immunized intradermally in the base of the tail with […] of a 1:1 emulsion consisting of Freund's Complete Adjuvant H37Ra (Difco) and 2 mg/mL bovine type II collagen (Elastin Products, Owensville, MO) in 0.1 M acetic acid. On day 14 post-immunization, the mice were given ad lib access to drinking water containing Cpd A, with treatment continuing daily until termination of the experiment (day 49). The Cpd A intake was monitored by weighing the drinking bottles at the water renewal twice per week. The control group received water ad lib.
The mice were monitored for clinical signs of arthritis three times a week from immunization to day 49. […] The four measurements were summed for each mouse, and group averages were calculated. Mice with a score >12 were sacrificed. In the scoring protocol, the last observation carried forward (LOCF) method was used.
Mean onset day was defined as the mean day of onset in mice being affected. […]
Statistical significance was determined using Mann-Whitney Rank Sum test. […]

Sequence of dopamine D2 receptor (P61169 whole entry, looked up): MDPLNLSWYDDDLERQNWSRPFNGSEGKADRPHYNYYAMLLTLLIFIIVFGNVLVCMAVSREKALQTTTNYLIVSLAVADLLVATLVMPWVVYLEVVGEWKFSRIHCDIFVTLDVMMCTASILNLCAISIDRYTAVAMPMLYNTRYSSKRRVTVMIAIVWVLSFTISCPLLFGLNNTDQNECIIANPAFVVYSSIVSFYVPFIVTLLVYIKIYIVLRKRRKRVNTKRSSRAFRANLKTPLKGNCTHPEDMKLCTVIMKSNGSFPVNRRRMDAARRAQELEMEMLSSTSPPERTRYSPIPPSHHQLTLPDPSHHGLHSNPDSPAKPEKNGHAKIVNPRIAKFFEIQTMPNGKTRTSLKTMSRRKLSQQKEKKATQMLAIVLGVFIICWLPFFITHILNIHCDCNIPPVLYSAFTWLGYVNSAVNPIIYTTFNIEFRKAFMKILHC

SMILES: CCN(CC)CCNC(=O)c1ccc(NC(=O)C(C)C)c(Cl)c1 [4-Isobutyrylamino-3-chloro-N-[2-(diethylamino)ethyl]benzamide hydrochloride]
- inhibition at 1000 µM [1]: 63%

SMILES: CCC(=O)Nc1ccc(C(=O)NCCN(CC)CC)cc1Cl [4-Propanoylamino-3-chloro-N-[2-(diethylamino)ethyl]benzamide hydrochloride]
- inhibition at 1000 µM [1]: 50%

SMILES: CCN(CC)CCNC(=O)c1ccc(NC(C)=O)c(Cl)c1 [Cpd A, 4-Acetamido-3-chloro-N-[2-(diethylamino)ethyl]benzamide hydrochloride]
- Disease Activity Index score reduction by Cpd A versus SASP treatment ([2]; Cpd A 100 mg/kg/day bid ip vs SASP 40 mg/kg/day bid po, p<0.016): 60%
- Blood in the Stool Percent Reduction of Score vs control ([2]; day 5, 50 mg/kg/day bid ip): 9%
- Blood in the Stool score LS means ± SE ([2]; day 5, 50 mg/kg/day bid ip): 2.2 ± 0.3
- Disease Activity Index LS means ± SE ([2]; day 5, 50 mg/kg/day bid ip): 6.4 ± 0.5
- Disease Activity Index Percent Reduction of Score vs control ([2]; day 5, 50 mg/kg/day bid ip): 7%
- Blood in the Stool Percent Reduction of Score vs control ([2]; day 5, 100 mg/kg/day bid ip): 96%
- Disease Activity Index LS means ± SE ([2]; day 5, 100 mg/kg/day bid ip): 1.7 ± 1.0
- Disease Activity Index Percent Reduction of Score vs control ([2]; day 5, 100 mg/kg/day bid ip): 75%
- Blood in the Stool score LS means ± SE ([2]; day 5, 100 mg/kg/day bid ip, hydrochloride): 0.1±0.5
- affinity for the dopamine D2 subtype receptor (in words) (dopamine D2 receptor): very low affinity
- inhibition at 1000 µM [1]: 45%
- delay of mean onset of disease compared to the control group ([3]; p=0.02): 5.8 days
- reduction of severity of arthritis score compared to the control group ([3]; p=0.05): 1.6

SMILES: O=C(O)c1cc(/N=N/c2ccc(S(=O)(=O)Nc3ccccn3)cc2)ccc1O [SASP, sulfasalazine, reference compound]
- frequency of diarrhoea (stool consistency score of 2 and 4) ([2]; day 3, 40 mg/kg/day bid po): 8%
- Blood in the Stool Percent Reduction of Score vs control ([2]; day 5, 40 mg/kg/day bid po): 42%
- Blood in the Stool score LS means ± SE ([2]; day 5, 40 mg/kg/day bid po): 1.4±0.2
- Disease Activity Index LS means ± SE ([2]; day 5, 40 mg/kg/day bid po): 4.4 ± 0.4
- Disease Activity Index Percent Reduction of Score vs control ([2]; day 5, 40 mg/kg/day bid po): 36%
- frequency of diarrhoea (stool consistency score of 2 and 4) ([2]; day 5, 40 mg/kg/day bid po): 71%
